The values below come from patent US20250304612A1, “THERAPEUTIC AGENT FOR BLOOD CANCER” (Aptabio Therapeutics Inc., priority 2017, published 2025).

Common to all, as to assay: MTT cytotoxicity assay, drug-resistant blood cancer cells
Format in all cases: cell-based
For orientation: Tetrazolium assays rely on reduction of a dye to a coloured formazan, in cell work by metabolically active cells.

Assay [1] has as its system Azacitidine-resistant MOLM13. The conditions noted are these: Homo sapiens, MOLM-13, 120 h, 5 days, read-out: IC50, cytotoxic effects on drug-resistant blood cancer cells. The procedure: (§1) Each oligonucleotide-modified nucleic acid was diluted in a 10 mM Tris-HCl (pH 7.4) solution to a final concentration of 100 μM. The diluted solution was allowed to stand at 94° C. for 5 minutes and then the tube was allowed to stand on ice. The resulting solution was added with a 2M KCl solution such that a final concentration of the KCl solution became 50 mM, allowed to stand at 60° C. for 3 hours and was slowly cooled to room temperature. Each oligonucleotide was diluted in a 10 mM Tris-HCl (pH 7.4) solution to a concentration of 10 μM, and was allowed to stand at 94° C. for 5 minutes, and the tube was allowed to stand on ice. The resulting solution was added with a 2M KCl solution such that the final concentration of the KCl solution became 50 mM, and allowed to stand at 60° C. for 3 hours and then slowly cooled to room temperature, which was then used for the present Example.
(§2) On the day before the experiment, 190 μl of a culture medium (at a concentration of 10^4 to 10^5 cells/ml) containing blood cancer cells such as HL60, MV-4-11, CCRF-CEM, MOLT-4 and MOLM-13 cell lines, and drug-resistant blood cancer cells such as azacitidine (AZA-1)-resistant MOLM13, decitabine (Dec-5)-resistant MOLM13 and cytarabine (AraC-1)-resistant MOLM13 cell lines, and normal cells such as WI38, CCD-18co and Fa2N4 cells were seeded on a 96-well plate. The next day, 10 μl of the oligonucleotide-modified nucleic acid solution prepared in Example 2 was added and then cultured for 5 days.
(§3) Five days after drug treatment, MTT assay was performed to measure cytotoxicity of the cell lines [see JBC 1999, 26369].

Assay [2] has as its system Cytarabine-resistant MOLM13. As to conditions: Homo sapiens, MOLM-13, 120 h, 5 days, read-out: IC50, cytotoxic effects on drug-resistant blood cancer cells. The method, then: as §1, §2, §3
The test system of assay [3] is Decitabine-resistant MOLM13. As to conditions: Homo sapiens, MOLM-13, 120 h, 5 days, read-out: IC50, cytotoxic effects on drug-resistant blood cancer cells. The procedure:
as §1, §2, §3

Assay [4] concerns Cytarabine-resistant HL-60. As to conditions: Homo sapiens, 120 h; Cytarabine-resistant HL-60, MTT, 5 days; read-out: IC50, cytotoxic effects on drug-resistant blood cancer cells.
Assay [5] relates to Cytarabine-resistant MV-4-11. The conditions noted are these: Homo sapiens, MV4-11, 120 h; Cytarabine-resistant MV-4-11, MTT, 5 days; read-out: IC50, cytotoxic effects on drug-resistant blood cancer cells.

The structures appear in SMILES notation.

Take `Nc1ccn([C@@H]2O[C@H](CO)[C@@H](O)[C@@H]2O)c(=O)n1` [Cytarabine, cytarabine]: the half-maximal inhibitory concentration (IC50) – broadly, the concentration at which inhibition is half-maximal – was 3.5 µM in assay [1]; more than 10 µM in assay [2]; 3.49 µM in assay [3]; more than 30 µM in assay [4]; more than 20 µM in assay [5].
